# Test results published in publication PMC6945111, “Cryo-EM Structure of Nucleotide-Bound Tel1^ATM Unravels the Molecular Basis of Inhibition and Structural Rationale for Disease-Associated Mutations” (Structure(London, England:1993), 2020).
# How the values were obtained:
# [1] = molecular target: T1, Tel1 (Saccharomyces cerevisiae, UniProt P38110); experiment: cryo-EM structure; format: binding; conditions: 3.7-3.9 A resolution; 1 mM AMP-PNP, 4 mM Mg(OAc)2, pH 7.4, on ice; kinase active site, one Mg2+ modelled, 1 ligand per monomer
# T1 construct: full-length 2787 residues, homodimer; expressed as GST-Tel1 (pBL602, Gal promoter) in S. cerevisiae PY265
# T1 sequence (P38110 whole entry): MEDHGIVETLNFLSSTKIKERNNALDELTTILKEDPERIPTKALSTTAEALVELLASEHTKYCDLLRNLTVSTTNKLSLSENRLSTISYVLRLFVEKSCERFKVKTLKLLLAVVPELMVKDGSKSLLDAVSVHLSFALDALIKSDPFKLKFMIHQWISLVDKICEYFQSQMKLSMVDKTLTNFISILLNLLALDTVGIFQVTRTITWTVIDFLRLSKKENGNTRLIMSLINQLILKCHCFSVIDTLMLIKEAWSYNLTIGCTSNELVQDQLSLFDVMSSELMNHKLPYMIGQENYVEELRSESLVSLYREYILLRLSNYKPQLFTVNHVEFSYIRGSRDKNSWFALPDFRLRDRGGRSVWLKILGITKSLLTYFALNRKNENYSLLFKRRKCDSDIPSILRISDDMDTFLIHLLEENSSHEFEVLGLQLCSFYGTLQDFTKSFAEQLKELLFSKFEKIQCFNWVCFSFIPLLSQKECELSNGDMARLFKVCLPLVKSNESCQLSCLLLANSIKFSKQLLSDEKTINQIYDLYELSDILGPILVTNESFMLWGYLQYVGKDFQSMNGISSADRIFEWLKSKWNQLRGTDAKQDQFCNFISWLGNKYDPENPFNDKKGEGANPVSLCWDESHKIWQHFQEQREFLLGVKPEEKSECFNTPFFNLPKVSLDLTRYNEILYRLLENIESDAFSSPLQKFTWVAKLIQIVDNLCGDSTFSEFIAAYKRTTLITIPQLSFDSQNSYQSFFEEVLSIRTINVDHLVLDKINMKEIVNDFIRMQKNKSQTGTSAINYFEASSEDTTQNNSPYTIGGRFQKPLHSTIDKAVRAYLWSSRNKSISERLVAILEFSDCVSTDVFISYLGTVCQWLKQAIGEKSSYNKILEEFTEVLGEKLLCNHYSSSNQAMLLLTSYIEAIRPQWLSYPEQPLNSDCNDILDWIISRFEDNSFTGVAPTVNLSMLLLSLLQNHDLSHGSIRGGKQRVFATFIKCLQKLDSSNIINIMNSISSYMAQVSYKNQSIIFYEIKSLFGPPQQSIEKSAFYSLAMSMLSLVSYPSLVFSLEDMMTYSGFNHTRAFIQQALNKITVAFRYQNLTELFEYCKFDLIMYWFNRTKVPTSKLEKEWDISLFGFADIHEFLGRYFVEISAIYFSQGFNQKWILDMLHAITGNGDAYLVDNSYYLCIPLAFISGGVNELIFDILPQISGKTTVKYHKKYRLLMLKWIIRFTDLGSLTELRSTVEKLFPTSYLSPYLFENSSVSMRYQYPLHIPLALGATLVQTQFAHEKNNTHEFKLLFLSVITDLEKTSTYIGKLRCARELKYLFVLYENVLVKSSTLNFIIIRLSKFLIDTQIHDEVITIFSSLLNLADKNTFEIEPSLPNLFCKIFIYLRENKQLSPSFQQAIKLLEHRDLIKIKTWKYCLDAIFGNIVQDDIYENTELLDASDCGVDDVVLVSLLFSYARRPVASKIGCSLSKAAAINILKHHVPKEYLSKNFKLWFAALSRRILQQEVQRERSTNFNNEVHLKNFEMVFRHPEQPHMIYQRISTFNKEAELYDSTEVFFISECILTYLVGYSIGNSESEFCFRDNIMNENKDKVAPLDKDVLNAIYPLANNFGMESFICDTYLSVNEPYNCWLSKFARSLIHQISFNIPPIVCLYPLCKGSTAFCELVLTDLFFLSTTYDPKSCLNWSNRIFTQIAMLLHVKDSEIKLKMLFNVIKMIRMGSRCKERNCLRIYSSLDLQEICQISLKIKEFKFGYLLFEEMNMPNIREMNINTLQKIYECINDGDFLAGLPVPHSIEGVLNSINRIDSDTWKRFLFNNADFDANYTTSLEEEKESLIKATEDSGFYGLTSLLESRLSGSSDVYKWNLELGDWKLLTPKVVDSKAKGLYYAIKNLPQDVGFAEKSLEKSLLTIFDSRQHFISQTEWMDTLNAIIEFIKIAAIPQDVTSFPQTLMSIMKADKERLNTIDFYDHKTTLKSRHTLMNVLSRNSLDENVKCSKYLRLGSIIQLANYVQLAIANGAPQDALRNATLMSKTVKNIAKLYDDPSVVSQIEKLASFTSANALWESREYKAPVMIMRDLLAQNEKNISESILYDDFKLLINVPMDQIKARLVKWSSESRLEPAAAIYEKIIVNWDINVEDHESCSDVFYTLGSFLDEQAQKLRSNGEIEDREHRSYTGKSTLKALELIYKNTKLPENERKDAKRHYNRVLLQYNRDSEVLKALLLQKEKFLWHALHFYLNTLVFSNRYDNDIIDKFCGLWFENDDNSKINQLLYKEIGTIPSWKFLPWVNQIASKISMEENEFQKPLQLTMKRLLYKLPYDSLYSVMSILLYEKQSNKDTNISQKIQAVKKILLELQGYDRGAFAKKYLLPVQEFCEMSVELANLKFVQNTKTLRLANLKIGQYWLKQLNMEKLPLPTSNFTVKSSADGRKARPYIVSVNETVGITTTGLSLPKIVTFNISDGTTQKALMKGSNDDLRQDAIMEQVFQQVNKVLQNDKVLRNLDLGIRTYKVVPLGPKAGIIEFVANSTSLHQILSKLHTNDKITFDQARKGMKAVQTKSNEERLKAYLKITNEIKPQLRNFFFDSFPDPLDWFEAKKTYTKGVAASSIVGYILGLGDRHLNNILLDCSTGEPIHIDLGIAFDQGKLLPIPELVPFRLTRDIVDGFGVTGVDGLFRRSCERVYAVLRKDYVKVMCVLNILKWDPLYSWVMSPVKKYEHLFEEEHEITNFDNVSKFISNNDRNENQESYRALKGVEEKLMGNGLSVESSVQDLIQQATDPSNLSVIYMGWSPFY
# [2] = molecular target: Saccharomyces cerevisiae Tel1 (Saccharomyces cerevisiae) (UniProt P38110); experiment: cryo-EM structure; Tel1 100 nM with 1 mM AMP-PNP and 4 mM Mg(OAc)2, diluted into 50 mM Tris-HCl, 50 mM NaCl, pH 7.4; C2 symmetry applied; homodimer
stoichiometry N [2],Compound,cryo-EM structure [1]
,Nc1ncnc2c1ncn2[C@@H]1O[C@H](COP(=O)(O)OP(=O)(O)NP(=O)(O)O)[C@@H](O)[C@H]1O [AMP-PNP],clear density for AMP-PNP
2,"Saccharomyces cerevisiae Tel1, P38110 1-2787",
